Test results published in ChEMBL document CHEMBL1201862, “PubChem BioAssay data set” (2004).
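96-well plates; 48 h exposure; 5 concentrations. Endpoints by linear interpolation between flanking doses. Not reached: highest tested concentration assigned. GI50: concentration for 50% inhibition of growth.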 Active and inactive are the calls of the source. No stated cut-off is given here; in the data, active = GI50 up to about 1.1 µM and inactive = higher.

Experiments:
Assay in all cases: inhibition of tumour cell growth, NCI panel, 48 h
TK-10 = system: TK-10
OVCAR-8 = system: OVCAR-8
MDA-MB-231 = system: MDA-MB-231
EKVX = system: EKVX
IGROV-1 = system: IGROV-1
NCI-H460 = system: NCI-H460
HT-29 = system: HT-29
U-251 = system: U-251
HCT-116 = system: HCT-116
SNB-19 = system: SNB-19
MDA-MB-435 = system: MDA-MB-435
SK-MEL-2 = system: SK-MEL-2
HOP-62 = system: HOP-62
HL-60 = system: HL-60
HCC 2998 = system: HCC 2998
OVCAR-3 = system: OVCAR-3
KM12 = system: KM12
NCI/ADR-RES = system: NCI/ADR-RES
HOP-92 = system: HOP-92
BT-549 = system: BT-549

| Compound | GI50 (TK-10) | GI50 (OVCAR-8) | GI50 (MDA-MB-231) | GI50 (EKVX) | GI50 (IGROV-1) | GI50 (NCI-H460) | GI50 (HT-29) | GI50 (U-251) | GI50 (HCT-116) | GI50 (SNB-19) | GI50 (MDA-MB-435) | GI50 (SK-MEL-2) | GI50 (HOP-62) | GI50 (HL-60) | GI50 (HCC 2998) | GI50 (OVCAR-3) | GI50 (KM12) | GI50 (NCI/ADR-RES) | GI50 (HOP-92) | GI50 (BT-549) |
| --- | --- | --- | --- | --- | --- | --- | --- | --- | --- | --- | --- | --- | --- | --- | --- | --- | --- | --- | --- | --- |
| Cn1cnc([N+](=O)[O-])c1Sc1nc(N)nc2c1ncn2Cc1ccccc1 | 15.8 µM (inactive) | 18.1 µM (inactive) | 19.7 µM (inactive) | 11.5 µM (inactive) | 14.5 µM (inactive) | 17.8 µM (inactive) | 22.5 µM (inactive) | 21.8 µM (inactive) | 20.7 µM (inactive) | 42.7 µM (inactive) | 21.6 µM (inactive) | 15.8 µM (inactive) | 19.7 µM (inactive) | 18.9 µM (inactive) | 15.9 µM (inactive) | 2.29 µM (inactive) | 30 µM (inactive) | 51.9 µM (inactive) | 12 µM (inactive) | 22.1 µM (inactive) |
| COc1cccc(NC(=O)CC(=O)N2N=C(C)C(/N=N\c3ccc(S(=O)(=O)c4ccc(/N=N/C5C(=O)N(C(=O)CC(=O)Nc6cccc(OC)c6)N=C5C)cc4)cc3)C2=O)c1 (stereo not given) | > 100 µM (inactive) | > 100 µM (inactive) | > 100 µM (inactive) | > 100 µM (inactive) | > 100 µM (inactive) | > 100 µM (inactive) | > 100 µM (inactive) | > 100 µM (inactive) | > 100 µM (inactive) | > 100 µM (inactive) | > 100 µM (inactive) | > 100 µM (inactive) | > 100 µM (inactive) | > 100 µM (inactive) | > 100 µM (inactive) | > 100 µM (inactive) | > 100 µM (inactive) | > 100 µM (inactive) | > 100 µM (inactive) | > 100 µM (inactive) |
| Cc1ccc(C2=NN=C3C(c4ccccc4)=Nc4ccccc4N3C2)cc1 | 0.348 µM (active) | 6.07 µM (inactive) | 19.8 µM (inactive) | 10.9 µM (inactive) | 13.1 µM (inactive) | 3.56 µM (inactive) | 11.6 µM (inactive) | 6.49 µM (inactive) | 5.28 µM (inactive) | 16.9 µM (inactive) | 16.3 µM (inactive) | 22.6 µM (inactive) | 9.98 µM (inactive) | 1.92 µM (inactive) | 19.6 µM (inactive) | 2.61 µM (inactive) | 26.4 µM (inactive) | 3.93 µM (inactive) | 24.1 µM (inactive) | 20.6 µM (inactive) |
| CN(C)CCNC1=CC(=O)c2nc3ccccc3c3ccnc1c23 | 8.2 µM (inactive) | 4.36 µM (inactive) | 3.63 µM (inactive) | 2.94 µM (inactive) | 2.47 µM (inactive) | 2.39 µM (inactive) | 2.58 µM (inactive) | 8.26 µM (inactive) | 2.88 µM (inactive) | 5.01 µM (inactive) | 7.52 µM (inactive) | 7.38 µM (inactive) | 4.79 µM (inactive) | 3.83 µM (inactive) | 4.47 µM (inactive) | 2.78 µM (inactive) | 3.34 µM (inactive) | 4.13 µM (inactive) | 11.7 µM (inactive) | 7.26 µM (inactive) |
| Cc1cc2nc(C=C(C(F)(F)F)C(F)(F)F)oc2cc1C | 2.45 µM (inactive) | 2.46 µM (inactive) | 2.88 µM (inactive) | 3.15 µM (inactive) | 2.91 µM (inactive) | 3.92 µM (inactive) | 3.04 µM (inactive) | 3.33 µM (inactive) | 1.38 µM (inactive) | 3.45 µM (inactive) | 2.14 µM (inactive) | > 10 µM (inactive) | 3.83 µM (inactive) | 2.03 µM (inactive) | 3.08 µM (inactive) | 1.95 µM (inactive) | > 10 µM (inactive) | 2.51 µM (inactive) | > 10 µM (inactive) | 2.67 µM (inactive) |
| COc1cc(/C=C/C(=N\NS(=O)(=O)c2ccc(C)cc2)c2sc(NNC(C)=O)nc2C)ccc1O | > 100 µM (inactive) | > 100 µM (inactive) | 69.2 µM (inactive) | > 100 µM (inactive) | > 100 µM (inactive) | > 100 µM (inactive) | > 100 µM (inactive) | > 100 µM (inactive) | > 100 µM (inactive) | > 100 µM (inactive) | > 100 µM (inactive) | > 100 µM (inactive) | > 100 µM (inactive) | > 100 µM (inactive) | > 100 µM (inactive) | > 100 µM (inactive) | > 100 µM (inactive) | > 100 µM (inactive) | > 100 µM (inactive) | > 100 µM (inactive) |
| CCOC(=O)C(SCCO)C(C(=O)OCC)n1cnc2c(N)ncnc21 (stereo not given) | 15 µM (inactive) | 13.9 µM (inactive) | 15.5 µM (inactive) | 16.5 µM (inactive) | 16.1 µM (inactive) | 12.4 µM (inactive) | 11 µM (inactive) | 7.26 µM (inactive) | 8.95 µM (inactive) | 28.5 µM (inactive) | 13.6 µM (inactive) | 15.8 µM (inactive) | 21.7 µM (inactive) | 2 µM (inactive) | 13.8 µM (inactive) | 12.7 µM (inactive) | 17.1 µM (inactive) | 19.8 µM (inactive) | 2.47 µM (inactive) | 15.3 µM (inactive) |
| N/C(=N\Nc1ccc(Cl)cc1)c1cnccn1 | > 100 µM (inactive) | > 100 µM (inactive) | > 100 µM (inactive) | 81.7 µM (inactive) | > 100 µM (inactive) | 37.2 µM (inactive) | 32.3 µM (inactive) | > 100 µM (inactive) | 22.4 µM (inactive) | > 100 µM (inactive) | 16.3 µM (inactive) | 58.1 µM (inactive) | 85.5 µM (inactive) | 3.48 µM (inactive) | 22.9 µM (inactive) | 64.3 µM (inactive) | > 100 µM (inactive) | 44 µM (inactive) | > 100 µM (inactive) | > 100 µM (inactive) |
| NCCSS(=O)(=O)CCN | > 100 µM (inactive) | > 100 µM (inactive) | > 100 µM (inactive) | > 100 µM (inactive) | > 100 µM (inactive) | > 100 µM (inactive) | > 100 µM (inactive) | > 100 µM (inactive) | > 100 µM (inactive) | > 100 µM (inactive) | > 100 µM (inactive) | > 100 µM (inactive) | > 100 µM (inactive) | > 100 µM (inactive) | > 100 µM (inactive) | > 100 µM (inactive) | > 100 µM (inactive) | > 100 µM (inactive) | > 100 µM (inactive) | > 100 µM (inactive) |
| O=C1Sc2cc3ccccc3cc2C(=O)Sc2cc3ccccc3cc21 | 55.2 µM (inactive) | 24.5 µM (inactive) | > 54.6 µM (inactive) | 76.2 µM (inactive) | 32.3 µM (inactive) | 41.6 µM (inactive) | 28 µM (inactive) | 29.6 µM (inactive) | 17.4 µM (inactive) | 47.1 µM (inactive) | 30.8 µM (inactive) | 23 µM (inactive) | 27.3 µM (inactive) | 7.87 µM (inactive) | 21.3 µM (inactive) | 21.1 µM (inactive) | 33 µM (inactive) | 29.1 µM (inactive) | 30.2 µM (inactive) | 32.3 µM (inactive) |
| CSC(=Nc1nnc(-c2ccc([N+](=O)[O-])cc2)s1)SC | 16.6 µM (inactive) | 34.4 µM (inactive) | > 58.5 µM (inactive) | 54.5 µM (inactive) | 27.9 µM (inactive) | > 89.1 µM (inactive) | > 100 µM (inactive) | 21.4 µM (inactive) | 27.4 µM (inactive) | 23.9 µM (inactive) | > 67.1 µM (inactive) | 26.7 µM (inactive) | 20.1 µM (inactive) | > 100 µM (inactive) | > 79.6 µM (inactive) | 57.3 µM (inactive) | > 94.8 µM (inactive) | 33.5 µM (inactive) | 9.25 µM (inactive) | > 77.4 µM (inactive) |
| CC(CNC(N)=O)NC(N)=O (stereo not given) | > 100 µM (inactive) | > 100 µM (inactive) | > 100 µM (inactive) | > 100 µM (inactive) | > 100 µM (inactive) | > 100 µM (inactive) | > 100 µM (inactive) | > 100 µM (inactive) | > 100 µM (inactive) | > 100 µM (inactive) | > 100 µM (inactive) | > 100 µM (inactive) | > 100 µM (inactive) | > 100 µM (inactive) | > 100 µM (inactive) | > 100 µM (inactive) | > 100 µM (inactive) | > 100 µM (inactive) | > 100 µM (inactive) | > 100 µM (inactive) |
| COc1cc(C2C=C(c3ccccc3)Oc3cc4c(cc32)OCO4)cc(OC)c1OC (stereo not given) | > 36.2 µM (inactive) | 0.502 µM (active) | 0.458 µM (active) | 0.565 µM (active) | 0.403 µM (active) | 0.436 µM (active) | 0.324 µM (active) | 0.449 µM (active) | 0.311 µM (active) | 3.94 µM (inactive) | 0.188 µM (active) | 1.91 µM (inactive) | 0.675 µM (active) | 0.521 µM (active) | 0.341 µM (active) | 0.324 µM (active) | 0.38 µM (active) | 0.312 µM (active) | 15 µM (inactive) | 0.632 µM (active) |
| O=c1[nH]c(=O)n(C2CC(O)C(CO)O2)cc1I (stereo not given) | > 100 µM (inactive) | > 100 µM (inactive) | > 100 µM (inactive) | > 100 µM (inactive) | > 100 µM (inactive) | > 60.7 µM (inactive) | > 100 µM (inactive) | > 100 µM (inactive) | > 100 µM (inactive) | > 100 µM (inactive) | > 100 µM (inactive) | > 100 µM (inactive) | > 100 µM (inactive) | > 81.3 µM (inactive) | > 82.6 µM (inactive) | > 100 µM (inactive) | > 100 µM (inactive) | > 100 µM (inactive) | > 100 µM (inactive) | > 100 µM (inactive) |
